Experimental data taken from patent US9387203B2, “Substituted aminoindane- and aminotetralinecarboxylic acids and the use thereof” (BAYER PHARMA AKTIENGESELLSCHAFT, priority 2012, dated 2016).

What was measured:
[1] = target: T1, soluble guanylate cyclase (sGC) (Rattus norvegicus, UniProt P20595); experiment: Stimulation of sGC enzyme activity (PPi detection, luciferase); type: biochemical; settings: for EC50: sGC enzyme in vitro, read-out: EC50 (half-maximal effective concentration), activating action at the sGC enzyme in vitro
T1 construct: made in house
T1 sequence (P20595 1-619): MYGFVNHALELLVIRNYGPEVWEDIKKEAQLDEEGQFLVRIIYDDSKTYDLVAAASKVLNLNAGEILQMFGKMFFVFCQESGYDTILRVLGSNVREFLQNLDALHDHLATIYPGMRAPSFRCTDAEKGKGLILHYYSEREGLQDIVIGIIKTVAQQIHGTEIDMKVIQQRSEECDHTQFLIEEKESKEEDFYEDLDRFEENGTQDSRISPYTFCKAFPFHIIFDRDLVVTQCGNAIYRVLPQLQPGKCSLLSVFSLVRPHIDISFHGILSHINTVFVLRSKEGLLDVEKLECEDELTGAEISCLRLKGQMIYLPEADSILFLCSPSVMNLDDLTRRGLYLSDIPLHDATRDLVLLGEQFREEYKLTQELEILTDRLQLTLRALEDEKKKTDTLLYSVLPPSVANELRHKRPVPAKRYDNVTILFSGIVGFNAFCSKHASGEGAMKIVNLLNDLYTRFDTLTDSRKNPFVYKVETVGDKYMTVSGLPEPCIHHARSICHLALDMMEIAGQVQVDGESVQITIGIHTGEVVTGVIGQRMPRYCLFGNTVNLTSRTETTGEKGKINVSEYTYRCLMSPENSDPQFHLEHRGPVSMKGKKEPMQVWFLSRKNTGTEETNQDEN
T1 sequence (P19686 1-690 partner): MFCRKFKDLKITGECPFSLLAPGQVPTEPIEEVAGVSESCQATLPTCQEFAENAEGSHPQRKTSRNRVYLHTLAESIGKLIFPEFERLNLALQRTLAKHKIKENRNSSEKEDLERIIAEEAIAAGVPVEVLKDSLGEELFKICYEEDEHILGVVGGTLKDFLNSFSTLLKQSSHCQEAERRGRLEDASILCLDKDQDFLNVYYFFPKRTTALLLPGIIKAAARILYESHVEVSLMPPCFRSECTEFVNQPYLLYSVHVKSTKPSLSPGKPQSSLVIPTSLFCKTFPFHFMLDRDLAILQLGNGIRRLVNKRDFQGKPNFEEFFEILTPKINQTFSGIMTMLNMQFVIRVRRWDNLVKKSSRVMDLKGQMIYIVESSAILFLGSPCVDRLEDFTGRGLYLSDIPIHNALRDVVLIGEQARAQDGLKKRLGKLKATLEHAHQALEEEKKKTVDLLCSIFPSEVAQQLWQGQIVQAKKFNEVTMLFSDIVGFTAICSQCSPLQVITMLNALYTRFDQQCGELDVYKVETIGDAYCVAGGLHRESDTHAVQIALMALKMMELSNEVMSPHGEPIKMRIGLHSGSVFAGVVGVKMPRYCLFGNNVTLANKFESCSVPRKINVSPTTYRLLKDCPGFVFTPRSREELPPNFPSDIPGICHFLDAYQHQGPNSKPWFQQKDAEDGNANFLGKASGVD
Experimental: B-2. Stimulation of sGC Enzyme Activity
Soluble guanylate cyclase (sGC) converts on stimulation GTP into cGMP and pyrophosphate (PPi). PPi is detected with the aid of the assay described below. The signal produced in the assay increases as the reaction progresses and serves as a measure of the sGC enzyme activity under the given stimulation.
To carry out the assay, 29 μl of enzyme solution[0-10 nM soluble guanylate cyclase (prepared according to Honicka et al., J. Mol. Med. 77, 14-23 (1999)) in 50 mM TEA, 2 mM MgCl2, 0.1% BSA (fraction V), 0.005% Brij®, pH 7.5] are initially introduced into a microplate, and 1 μl of the substance to be tested (as a serially diluted solution in DMSO) is added. The mixture is incubated at room temperature for 10 min. Then 20 μl of detection mix [1.2 nM Firefly Luciferase (Photinus pyralis luciferase, Promega), 29 μM dehydroluciferin (prepared according to Bitler & McElroy, Arch. Biochem. Biophys. 72, 358 (1957)), 122 μM luciferin (Promega), 153 μM ATP (Sigma) and 0.4 mM DTT (Sigma) in 50 mM TEA, 2 mM MgCl2, 0.1% BSA (fraction V), 0.005% Brij®, pH 7.5] are added. The enzyme reaction is started by adding 20 μl of substrate solution[1.25 mM guanosine 5′-triphosphate (Sigma) in 50 mM TEA, 2 mM MgCl2, 0.1% BSA (fraction V), 0.005% Brij®, pH 7.5] and measured continuously in a luminometer. The extent of the stimulation by the substance to be tested can be determined relative to the signal of the unstimulated reaction.
The activation of haem-free guanylate cyclase is examined by addition of 25 μM of 1H-1,2,4-oxadiazolo[4,3-a]quinoxalin-1-one (ODQ) to the enzyme solution and subsequent incubation for 30 minutes and compared to the stimulation of the native enzyme.

[2] = system: recombinant guanylate cyclase reporter cell line (CHO); experiment: Effect on a recombinant guanylate cyclase reporter cell line (sGC-activating activity in the CHO reporter cell); type: cell-based
Experimental: B-1. Effect on a Recombinant Guanylate Cyclase Reporter Cell Line
The cellular activity of the compounds according to the invention is determined using a recombinant guanylate cyclase reporter cell line, as described in F. Wunder et al., Anal. Biochem. 339, 104-112 (2005).

[3] = system: rabbit arteria saphena rings; experiment: Vasorelaxant effect in vitro (arteria saphena rings, phenylephrin contraction); parameters: species or system Rabbits; settings: concentration reducing phenylephrin-induced contraction by 50%
Experimental: B-3. Vasorelaxant Effect In Vitro
Rabbits are anaesthetized by intravenous injection of thiopental sodium […] (about 50 mg/kg) and exsanguinated. The arteria saphena is removed and divided into 3 mm wide rings. The rings are individually mounted on in each case one triangular pair of hooks, open at the end, made of 0.3 mm strong special wire (Remanium®). Under pretension, each ring is transferred into 5 ml organ baths containing carbogen-gassed Krebs-Henseleit solution of a temperature of 37° C. having the following composition: NaCl 119 mM; KCl 4.8 mM; CaCl2×2 H2O 1 mM; MgSO4×7 H2O 1.4 mM; KH2PO4 1.2 mM; NaHCO3 25 mM; glucose 10 mM; bovine serum albumin 0.001%. The contractile force is determined with Statham UC2 cells, amplified and digitalized using A/D transducers (DAS-1802 HC, Keithley Instruments Munich), and recorded in parallel on linear recorders. Contractions are induced by addition of phenylephrin.
After several (in general 4) control cycles, the substance to be investigated is added in each further passage in increasing dosage, and the height of the contraction achieved under the influence of the test substance is compared with the height of the contraction achieved in the last preliminary passage. From this, the concentration which is necessary in order to reduce the contraction achieved in the preliminary control by 50% (IC50) is calculated. The standard administration volume is 5 μl. The proportion of DMSO in the bath solution corresponds to 0.1%.

SMILES | MEC (minimum effective concentration), activating action at the sGC enzyme in vitro [1] [nM] | EC50 [1] [nM] | MEC (minimum effective concentration), sGC-activating activity in the CHO reporter cell in vitro [2] [nM] | IC50 [3] [nM] | IC50 ([3]; Oryctolagus cuniculus) [nM]
O=C(O)CCCCN(CCc1ccccc1OCCCCN1CCCC1=O)C1CCCc2cc(C(=O)O)ccc21 (stereo not drawn) [Example 16] | 600 | – | – | – | –
Cc1cc(COc2ccccc2CCN(CCCCC(=O)O)C2CCCc3cc(C(=O)O)ccc32)n(C)n1 (stereo not drawn) [Example 11] | 610 | – | – | – | –
CC(C)(C)c1ccc(COc2ccccc2CCN(CCCCC(=O)O)C2CCCc3cc(C(=O)O)ccc32)cc1 (single isomer, unassigned; enantiomer 2) [Example 3, 5-[(2-{2-[(4-tert-Butylbenzyl)oxy]phenyl}ethyl)(4-carboxybutyl)amino]-5,6,7,8-tetrahydronaphthalene-2-carboxylic acid (enantiomer 2)] | 5 | 43 | 0.65 | 58 | –
CC(C)(C)c1ccc(COc2ccccc2CCN(CCCCC(=O)O)C2CCCc3cc(C(=O)O)ccc32)cc1 (single isomer, unassigned; enantiomer 1) [Example 2, 5-[(2-{2-[(4-tert-Butylbenzyl)oxy]phenyl}ethyl)(4-carboxybutyl)amino]-5,6,7,8-tetrahydronaphthalene-2-carboxylic acid (enantiomer 1)] | 0.11 | 2.5 | 0.2 | 3.8 | –
O=C(O)CCCCN(CCc1ccccc1OCc1ccc(CCc2ccccc2)cc1)C1CCCc2cc(C(=O)O)ccc21 (stereo not drawn) [Example 8] | 0.32 | 7.2 | 0.3 | – | –
CC1CCC(=O)N1CCCCOc1ccccc1CCN(CCCCC(=O)O)C1CCCc2cc(C(=O)O)ccc21 (stereo not drawn) [Example 13] | 55 | – | – | – | –
CC(C)(C)c1ccc(COc2ccccc2CCN(CCCCC(=O)O)C2CCCc3cc(C(=O)O)ccc32)cc1 (racemic) [Example 1, rac-5-[(2-{2[(4-tert-Butylbenzyl)oxy]phenyl}ethyl)(4-carboxybutyl)amino]-5,6,7,8-tetrahydronaphthalene-2-carboxylic acid] | 0.34 | 3 | 0.3 | – | 6
N#Cc1cccc(COc2ccccc2CCN(CCCCC(=O)O)C2CCCc3cc(C(=O)O)ccc32)c1 (stereo not drawn) [Example 10] | 270 | – | 1000 | – | –
CC(C)(C)c1ccc(COc2ccccc2CCN(CCCCC(=O)O)C2CCc3cc(C(=O)O)ccc32)cc1 (stereo not drawn) [Example 4] | 0.21 | 4.5 | 3.0 | – | 31
